Laboratory results as given in PubChem BioAssay (NCI).
“And” between values parts separate entries of the source, which are not always exact repeats. Identical values can stand only once.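 Grown in 96-well plates, cells were treated for 48 hours with each compound at five concentrations. Insufficient inhibition: endpoint recorded as highest concentration tested. The concentration for 50% growth inhibition is given as GI50. TGI denotes the concentration required for complete inhibition of growth.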

Assays:
Assay in all cases: NCI tumour cell line growth inhibition, 48 h
M19-MEL melanoma = tested on: M19-MEL melanoma
DMS 273 small cell lung = tested on: DMS 273 small cell lung
DLD-1 colon = tested on: DLD-1 colon
XF 498 CNS = tested on: XF 498 CNS
DMS 114 small cell lung = tested on: DMS 114 small cell lung
MDA-MB-435 = tested on: MDA-MB-435
MCF7 breast = tested on: MCF7 breast
HS 578T breast = tested on: HS 578T breast
T-47D breast = tested on: T-47D breast
BT-549 breast = tested on: BT-549 breast

Compound	TGI (M19-MEL melanoma) [µM]	TGI (DMS 273 small cell lung) [µM]	TGI (DLD-1 colon) [µM]	TGI (XF 498 CNS) [µM]	TGI (DMS 114 small cell lung) [µM]	other results
NC(N)=NS(=O)(=O)c1ccc(NC(=O)c2cccn3c(=O)c4ccccc4nc23)cc1	> 100	> 100	> 100	76.8	> 100	
[O-]c1ccccc1[C-]=Nc1ccccc1O.[O-]c1ccccc1[C-]=Nc1ccccc1O.[O]=[U]=[O]	48.6	59.5	41	42	23.2	GI50 (M19-MEL melanoma): 12.3 µM; GI50 (DMS 273 small cell lung): 13.7 µM; GI50 (DLD-1 colon): 2.23 µM; GI50 (XF 498 CNS): 20 µM; GI50 (DMS 114 small cell lung): 2.4 µM
CN1CCN2c3ccccc3CC(C#N)(C#N)C2C1 (centres undefined)	> 100	> 100	> 100		> 100	
CC1(OCc2ccccc2)C(=O)N2C1N(C(=O)OCc1ccccc1)CC2(C)C (centres undefined)	> 100	> 100	> 100	75	> 100	
O=C1C2c3[nH]c4ccccc4c3C3CCC(c4ccccc4)CC3C2C(=O)N1c1ccccc1 (centres undefined)	> 100	> 100	> 100	> 100	> 100	
N#CC1=C(c2ccccc2)NN(Cc2ccccc2)C(c2ccc(Cl)cc2)CC1=O (centres undefined)		52.8	49.1	50.1	> 100	
CC(=O)CC(=O)ON(C)C(C)=O	> 100	> 100	> 100	> 100	> 100	
CCOC(=O)NC(=O)c1cn(CC(=O)NCC(=O)NCC(=O)N2CCN(CCn3c(C)nc(C(N)=O)c3N)CC2)c(=O)[nH]c1=O	> 100		> 100	> 100	> 100	
Clc1cc2nc[nH]c2cc1Cl	> 100	> 100	> 100	> 100	> 100	
COc1ccc(C(=C(C#N)C#N)c2ccc(OC)cc2)cc1		> 100			> 100	
OCC(O)C(O)C(O)c1nn[nH]n1 (centres undefined)	> 100	> 100	> 100		> 100	
CC12CCC(=O)N1c1cc([N+](=O)[O-])ccc1N2 (centres undefined)	> 100	> 100	> 100	> 100	> 100	
Clc1cc(Cl)cc(C2SCc3nc4ccccc4n32)c1 (centres undefined)		22.4			44.7	
C/C(=N\NC(=O)C[n+]1ccccc1)c1sc(-c2nc(C)c(/C(C)=N/NC(=O)C[n+]3ccccc3)s2)nc1C	> 100		> 100		> 100	
O=C1C[C@@H]2[C@@H](C=CC23CC3)N1O	> 100	> 100	> 100			
Cc1cc(Cl)ccc1NC(=O)C1C(=O)C(=O)N(c2ccc(Cl)cc2C)C1=O (centres undefined)	> 100	> 100	> 100		68.1	
CCN1C(=O)/C(=C\c2coc3ccccc3c2=O)SC1=S	> 100	> 100	> 100	> 100	> 100	
COc1cccc(-c2cc(C(=O)Nc3ccc(Cl)cc3)nc(N)n2)c1	> 100	> 100	> 100	> 100	> 100	
CC(=O)O[C@H]1CC[C@@]2(C)C(=CC[C@@H]3C2CC[C@]2(C)C(=O)NC(=O)CC32)C1 (some centres undefined)	> 100	> 100	> 100	> 100	> 100	
CCOc1cccc2sc(N)nc12	> 100	> 100	> 100		> 100	
C/C(=N\N)C(CN1CCCCC1)C(c1ccccc1)c1c(O)c2ccccc2oc1=O (centres undefined)	> 100	> 100	> 100	> 100	> 100	TGI (MDA-MB-435): > 100 µM; TGI (MCF7 breast): > 100 µM; TGI (HS 578T breast): > 100 µM; TGI (T-47D breast): > 100 µM; TGI (BT-549 breast): > 100 µM
CC[C@@]1(O)C(=O)OCc2c1cc1n(c2=O)Cc2cc3c([N+](=O)[O-])c(O)ccc3nc2-1	11.9	2.02	> 100	9.25	1.2	GI50 (M19-MEL melanoma): 0.655 µM; GI50 (DMS 273 small cell lung): 0.0605 µM; GI50 (DLD-1 colon): 9.41 µM; GI50 (XF 498 CNS): 1.09 µM; GI50 (DMS 114 small cell lung): 0.0601 µM

Compound	TGI (M19-MEL melanoma) [µM]	TGI (DMS 273 small cell lung) [µM]	TGI (DLD-1 colon) [µM]	TGI (XF 498 CNS) [µM]	TGI (DMS 114 small cell lung) [µM]	other results
CN1C(=O)C(C)(C)NS1(=O)=O	> 100	> 100	> 100	> 100	> 100	
CS(=O)(=O)OCCCCOS(C)(=O)=O	230	245	> 236		250	GI50 (MDA-MB-435): > 250 µM; TGI (MDA-MB-435): > 1000 µM; GI50 (MCF7 breast): 534 µM; TGI (MCF7 breast): 250 µM and > 1000 µM; GI50 (HS 578T breast): > 555 µM; TGI (HS 578T breast): > 1000 µM; GI50 (T-47D breast): 336 µM; TGI (T-47D breast): > 464 µM; GI50 (BT-549 breast): > 250 µM; TGI (BT-549 breast): > 1000 µM
Cc1cc(N(CCC#N)CCC#N)ccc1/C=C(\NC(=O)/C=C/c1ccccc1)NC(=O)Nc1ccccc1C	> 100	> 100	> 100		> 100	
CC(/C=C/C=C\C=C\C=C(/C)C(=O)NC(C)CO)=C\C(C)C(O)/C(C)=C/C(C)CCc1ccccc1 (centres undefined)	19.4	17.1	31.6	22	2.47	TGI (MDA-MB-435): 39.7 µM; TGI (MCF7 breast): 19.7 µM; TGI (HS 578T breast): 52.8 µM; TGI (T-47D breast): 46.4 µM; TGI (BT-549 breast): 33.1 µM
C[C@]12CC[C@H](OC(=O)Cc3ccc(N(CCCl)CCCl)cc3)CC1CC[C@@H]1C2CC[C@]2(C)NC(=O)CCC12 (some centres undefined)	28.8	20.5	32.4	28.3	21.9	
O=c1/c(=C/c2ccccc2O)sc2nc3ccccc3n12	> 100	> 100	> 100		47.5	
O=C(/C=C/c1ccc[nH]1)c1ccccc1	> 100	> 100	> 100		> 100	
COC(=O)c1ccc(CS(=O)(=O)c2ccccc2)cc1	> 100	> 100	> 100	> 100	> 100	
COc1cccc(-c2cc(=O)c3cc(C)c(C)c(C(=O)O)c3o2)c1	> 100	> 100	> 100	> 100	> 100	
CS(=O)(=O)c1nccc(-c2c(-c3cccc(OCc4ccccc4)c3)nc3sccn23)n1						GI50 (MDA-MB-435): 13.3 µM; TGI (MDA-MB-435): > 100 µM; GI50 (MCF7 breast): 7.31 µM; TGI (MCF7 breast): > 100 µM; GI50 (HS 578T breast): 12.9 µM; TGI (HS 578T breast): > 100 µM; GI50 (T-47D breast): 11.7 µM; TGI (T-47D breast): > 100 µM; GI50 (BT-549 breast): 11.6 µM; TGI (BT-549 breast): > 100 µM
COc1ccc(C(=O)OC2C(OC3C(O)COC(O[C@H]4C[C@H]5[C@@H]6CC=C7C[C@@H](O)CC[C@]7(C)[C@H]6CC[C@]5(C)[C@H]4[C@H](C)C(=O)CCC(C)C)C3OC(=O)C(C)C)OCC(O)C2O)cc1 (some centres undefined)						GI50 (MDA-MB-435): 0.0154 µM; TGI (MDA-MB-435): 0.216 µM; GI50 (MCF7 breast): 0.0136 µM; TGI (MCF7 breast): 2.99 µM; GI50 (HS 578T breast): 0.00343 µM; TGI (HS 578T breast): 0.0441 µM; GI50 (T-47D breast): 0.0358 µM; TGI (T-47D breast): 3.08 µM; GI50 (BT-549 breast): < 0.00275 µM; TGI (BT-549 breast): 3.26 µM
Cc1ccc2oc(=O)cc(CC(=O)O)c2c1	> 100	> 100	> 100	93.1		
Oc1ccccc1/C=N/Nc1nc2ccccc2s1						GI50 (MDA-MB-435): > 100 µM; TGI (MDA-MB-435): > 100 µM; GI50 (MCF7 breast): 1.16 µM; TGI (MCF7 breast): > 100 µM; GI50 (HS 578T breast): 8.84 µM; TGI (HS 578T breast): 58 µM; GI50 (T-47D breast): 2.11 µM; TGI (T-47D breast): > 100 µM; GI50 (BT-549 breast): > 100 µM; TGI (BT-549 breast): > 100 µM
N=C(N)c1ccc(CS(=O)(=O)F)cc1						GI50 (MDA-MB-435): > 100 µM; TGI (MDA-MB-435): > 100 µM; GI50 (MCF7 breast): > 100 µM; TGI (MCF7 breast): > 100 µM; GI50 (HS 578T breast): > 100 µM; TGI (HS 578T breast): > 100 µM; GI50 (T-47D breast): > 100 µM; TGI (T-47D breast): > 100 µM; GI50 (BT-549 breast): > 100 µM; TGI (BT-549 breast): > 100 µM
CCOC(=O)C1Nc2ccc([N+](=O)[O-])cc2[C@H]2OCC[C@@H]12 (some centres undefined)	> 100	> 100	> 100	> 100	> 100	
Cc1c(C)n(CC(O)CNC2CCCCC2C)c2ccccc12 (centres undefined)						GI50 (MDA-MB-435): 12.8 µM; TGI (MDA-MB-435): 25.4 µM; GI50 (MCF7 breast): 13.2 µM; TGI (MCF7 breast): 28.3 µM; GI50 (HS 578T breast): 16.3 µM; TGI (HS 578T breast): 43 µM; GI50 (T-47D breast): 12.8 µM; TGI (T-47D breast): 29.8 µM; GI50 (BT-549 breast): 16 µM; TGI (BT-549 breast): 30.1 µM
Cc1cc(NCCCNc2ccnc3cc(Cl)ccc23)nc(Nc2ccc(C(=O)N3CCCCC3)cc2)n1						GI50 (MDA-MB-435): 1.71 µM; TGI (MDA-MB-435): 3.2 µM; GI50 (MCF7 breast): 1.82 µM; TGI (MCF7 breast): 4.09 µM; GI50 (HS 578T breast): 2.68 µM; TGI (HS 578T breast): 6.38 µM; GI50 (T-47D breast): 2.15 µM; TGI (T-47D breast): 6.2 µM; GI50 (BT-549 breast): 2.31 µM; TGI (BT-549 breast): 5.43 µM
CC(C)COC(=O)N1N=NC2C3CC(=O)C(O3)C21 (centres undefined)	> 100	> 100	> 100		> 100	
CC(=O)OC1COC(n2c(O)c(N=Nc3ccc([N+](=O)[O-])cc3)c3cc(Br)c([N+](=O)[O-])cc32)C(OC(C)=O)C1OC(C)=O (centres undefined)	> 100	> 100	> 100	> 100		
C=C(c1ccccc1)[C@@]1(O)CCCC[C@H]1NC(c1ccccc1)c1ccccc1	28.3	27.1	31.9		22.3	
CC(C)(C)c1cc(O)c2c(c1O)C(=O)CCC2	84.9	> 100	> 100	71.2	69.1	
CN(C(=N)c1ccccc1)c1ccccc1	> 100	> 100	> 100			
